Read-outs that look alike come from different tables or passages of the source.
What was measured:
COX-2 = biological target: T1, COX-2 (Homo sapiens, UniProt P35354); assay: COX inhibitor screening assay, COX-2; assay type: biochemical
T1 construct: purchased
T1 sequence (P35354 18-604): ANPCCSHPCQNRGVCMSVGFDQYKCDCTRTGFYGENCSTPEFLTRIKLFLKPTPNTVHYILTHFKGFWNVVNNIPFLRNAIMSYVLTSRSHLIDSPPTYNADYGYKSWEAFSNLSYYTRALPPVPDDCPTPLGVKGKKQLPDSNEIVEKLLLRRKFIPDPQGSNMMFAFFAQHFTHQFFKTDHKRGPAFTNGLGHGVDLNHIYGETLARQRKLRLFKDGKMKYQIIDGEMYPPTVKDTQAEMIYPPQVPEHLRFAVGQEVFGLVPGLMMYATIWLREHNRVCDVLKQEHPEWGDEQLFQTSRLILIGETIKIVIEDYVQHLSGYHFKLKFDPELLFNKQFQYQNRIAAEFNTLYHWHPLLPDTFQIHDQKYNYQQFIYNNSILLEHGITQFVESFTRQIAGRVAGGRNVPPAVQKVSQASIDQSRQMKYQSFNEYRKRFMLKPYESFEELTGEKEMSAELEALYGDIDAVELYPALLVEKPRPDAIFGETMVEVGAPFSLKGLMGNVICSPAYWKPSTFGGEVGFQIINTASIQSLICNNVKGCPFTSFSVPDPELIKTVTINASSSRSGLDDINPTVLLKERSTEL
Experimental: The inhibitory effects of the drugs MMF and MPA on COX-1 and COX-2 were measured using the COX inhibitor screening assay kit and LOX inhibitor screening kit. […] Briefly, the reaction buffer (Tris–HCl buffer, pH 8.0) containing 5 mM EDTA, 2 mM phenol, and 1 µM hematin was measured into test tubes. The test drugs were dissolved in dimethyl sulfoxide and added to the tubes to final concentrations of […]. COX-1 or COX-2 was added to the test tubes and preincubated for 10 min at 37 °C. Arachidonic acid was then added, and the tubes were incubated for 2 min at 37 °C. The enzyme immunoassay was used to measure the concentration of the product prostaglandin F2α (PGF2α). The estimated values were determined after comparison to the predetermined standard curve. The IC50 was determined after three different experiments. The selectivity index was calculated from Eq. (1):
(1) Selectivity index=IC50COX−1/IC50COX−2

12-LOX = assay: LOX inhibitor screening kit; assay type: biochemical
Experimental: The inhibitory effects of the drugs MMF and MPA on COX-1 and COX-2 were measured using the COX inhibitor screening assay kit and LOX inhibitor screening kit. The assay was performed according to the manufacturer’s directions and previously described methods ([Chowdhury et al., 2008]; [Lee et al., 2004]). Briefly, the reaction buffer (Tris–HCl buffer, pH 8.0) containing 5 mM EDTA, 2 mM phenol, and 1 µM hematin was measured into test tubes. The test drugs were dissolved in dimethyl sulfoxide and added to the tubes to final concentrations of […]. COX-1 or COX-2 was added to the test tubes and preincubated for 10 min at 37 °C. Arachidonic acid was then added, and the tubes were incubated for 2 min at 37 °C. The enzyme immunoassay was used to measure the concentration of the product prostaglandin F2α (PGF2α). The estimated values were determined after comparison to the predetermined standard curve. The IC50 was determined after three different experiments. The selectivity index was calculated from Eq. (1): […]

- IC50 (COX-2): 0.19 µM
- IC50 (12-LOX; printed as 5-LOX in abstract and b38, read-out: IC50 5-LOX): 4.47 µM
- IC50 (12-LOX; read-out: IC50 12-LOX): 4.47 µM
Structure (SMILES): COc1c(C)c2c(c(O)c1C/C=C(\C)CCC(=O)OCCN1CCOCC1)C(=O)OC2 [Mycophenolate mofetil]
